In the CheMixHub ionic liquid set:
± gives the uncertainty stated by the source.

Assay: xn = mol fraction of the nth substance listed

CC(=O)c1ccccc1 + CCOS(=O)(=O)[O-].CC[n+]1ccn(C)c1
100 kPa
Conditions	viscosity [mPa·s]
293.15 K, x1 = 0.7973	4.3 ± 1.3
303.15 K, x1 = 0.2	27.1 ± 8.1
303.15 K, x1 = 0.4002	16.4 ± 4.9
303.15 K, x1 = 0.7973	5.3 ± 1.6
303.15 K, x1 = 0.9502	2.48 ± 0.74
303.15 K, x1 = 1	1.65 ± 0.5
313.15 K, x1 = 0.6921	5.6 ± 1.7
313.15 K, x1 = 0.8999	3.3 ± 1
313.15 K, x1 = 0.9502	2 ± 0.6
313.15 K, x1 = 1	1.37 ± 0.41
323.15 K, x1 = 0.3008	10.7 ± 3.2
323.15 K, x1 = 0.5999	5.8 ± 1.7
323.15 K, x1 = 0.8999	1.94 ± 0.58
323.15 K, x1 = 1	1.17 ± 0.35
333.15 K, x1 = 0.0505	16.2 ± 4.9
333.15 K, x1 = 0.0997	14.2 ± 4.3

CCCCCCO + CCCCCCCC[n+]1ccc2ccccc2c1.O=S(=O)([N-]S(=O)(=O)C(F)(F)F)C(F)(F)F
Conditions	viscosity [mPa·s]
328.15 K, 101 kPa, x1 = 1	1.97 ± 0.02

CN(C)C=O + CCCCCCCCn1cc[n+](C)c1.N#C[S-]
101 kPa, x2 = 0
Conditions	viscosity [mPa·s]
293.15 K	0.881 ± 0.026
303.15 K	0.771 ± 0.023
313.15 K	0.668 ± 0.022
323.15 K	0.605 ± 0.021
333.15 K	0.553 ± 0.019
353.15 K	0.479 ± 0.015
363.15 K	0.447 ± 0.014

COC[n+]1ccccc1.O=S(=O)([N-]S(=O)(=O)C(F)(F)F)C(F)(F)F + O
101 kPa, x1 = 0.8483
Conditions	electrical conductivity [S/m]	viscosity [mPa·s]
298.1 K	–	37.4 ± 0.9
298.15 K	0.608	–
303 K	–	30.6 ± 0.7
333 K	–	12 ± 0.3

CCCCn1cc[n+](CCOCCOCCOCCOCC[n+]2ccn(CCCC)c2)c1.O=S(=O)([N-]S(=O)(=O)C(F)(F)F)C(F)(F)F.O=S(=O)([N-]S(=O)(=O)C(F)(F)F)C(F)(F)F + CC[n+]1ccn(C)c1.N#C[N-]C#N + O=S(=O)([N-]S(=O)(=O)C(F)(F)F)C(F)(F)F.[Li+]
100 kPa, x1 = 0.1333, x2 = 0.7621
Conditions	electrical conductivity [S/m]
298 K	0.835 ± 0.033
303 K	0.94 ± 0.038
313 K	1.17 ± 0.047
323 K	1.52 ± 0.061
333 K	1.8 ± 0.072
343 K	2.06 ± 0.082

CCCC[n+]1ccccc1.[Cl-] + CCCC[n+]1ccccc1.[Br-]
101 kPa
Conditions	viscosity [mPa·s]
398.1 K, x1 = 0.084	33 ± 2.4
403.1 K, x1 = 0.084	27.4 ± 2.1
408.1 K, x1 = 0.389	23.9 ± 1.7
418.1 K, x1 = 0.169	16.9 ± 1.1
418.1 K, x1 = 0.389	17.4 ± 1.1
418.1 K, x1 = 0.689	18.6 ± 1.1
418.1 K, x1 = 0.892	19.4 ± 1.1
423.1 K, x1 = 0.084	14.37 ± 0.86
423.1 K, x1 = 0.892	16.89 ± 0.97
428.1 K, x1 = 0.785	14.42 ± 0.79
433.1 K, x1 = 0.292	11.45 ± 0.6
433.1 K, x1 = 0.892	13.16 ± 0.67
438.1 K, x1 = 0.169	10.08 ± 0.49
438.1 K, x1 = 0.469	10.85 ± 0.52
438.1 K, x1 = 0.892	11.77 ± 0.56

Cn1cc[nH+]c1.[Cl-] + [Cl][Al]([Cl])[Cl]
101 kPa
Conditions	electrical conductivity, 303.15 K [S/m]	electrical conductivity, 313.15 K [S/m]	viscosity, 303.15 K [mPa·s]	viscosity, 313.15 K [mPa·s]
x2 = 0.643	–	0.782 ± 0.008	–	31.87 ± 0.44
x2 = 0.667	0.709 ± 0.007	–	32.79 ± 0.48	–

CCOC(C)=O + CCCC[n+]1ccn(C)c1.O=S(=O)([N-]S(=O)(=O)C(F)(F)F)C(F)(F)F
298.15 K, 101 kPa
Conditions	viscosity [mPa·s]
x1 = 0.092	40 ± 1
x1 = 0.2303	26.5 ± 0.6

CC#N + Cn1cc[n+](CCCN)c1.F[B-](F)(F)F
101 kPa, x2 = 0
Conditions	viscosity [mPa·s]
288.15 K	0.439 ± 0.06
293.15 K	0.403 ± 0.06
298.15 K	0.371 ± 0.06
303.15 K	0.345 ± 0.06
308.15 K	0.322 ± 0.06
313.15 K	0.3 ± 0.06
318.15 K	0.282 ± 0.06
323.15 K	0.265 ± 0.06

CC[n+]1ccn(C)c1.O=S(=O)([O-])O + O=C([O-])CC(O)(CC(=O)[O-])C(=O)[O-].[NH4+].[NH4+].[NH4+] + O
viscosity [mPa·s], 101 kPa
Conditions	293.15 K	298.15 K	303.15 K	308.15 K	313.15 K
x2 = 0, x1 = 0.0006645	1.023 ± 0.017	0.93 ± 0.017	0.823 ± 0.015	0.75 ± 0.015	0.674 ± 0.013
x2 = 0, x1 = 0.0007293	1.036 ± 0.017	0.943 ± 0.018	0.825 ± 0.015	0.749 ± 0.014	0.689 ± 0.015
x2 = 0, x1 = 0.0009254	1.064 ± 0.022	0.943 ± 0.016	0.844 ± 0.018	0.763 ± 0.015	0.683 ± 0.014
x2 = 0.0007784, x1 = 0.0007287	1.08 ± 0.019	0.994 ± 0.017	0.875 ± 0.016	0.801 ± 0.015	0.743 ± 0.014
x2 = 0.0007964, x1 = 0.0009246	1.11 ± 0.023	0.994 ± 0.017	0.895 ± 0.018	0.815 ± 0.015	0.737 ± 0.014
x2 = 0.000825, x1 = 0.0006639	1.07 ± 0.019	0.983 ± 0.017	0.877 ± 0.016	0.803 ± 0.015	0.727 ± 0.014
x2 = 0.001056, x1 = 0.0007285	1.096 ± 0.019	1.005 ± 0.017	0.886 ± 0.015	0.813 ± 0.014	0.756 ± 0.013
x2 = 0.001057, x1 = 0.0006638	1.083 ± 0.018	0.992 ± 0.017	0.886 ± 0.015	0.813 ± 0.014	0.737 ± 0.013
x2 = 0.001176, x1 = 0.0009243	1.133 ± 0.023	1.008 ± 0.016	0.911 ± 0.018	0.832 ± 0.015	0.755 ± 0.013
x2 = 0.001406, x1 = 0.0009241	1.146 ± 0.023	1.017 ± 0.016	0.919 ± 0.018	0.841 ± 0.015	0.765 ± 0.013
x2 = 0.001588, x1 = 0.0007281	1.126 ± 0.019	1.024 ± 0.017	0.906 ± 0.016	0.834 ± 0.014	0.779 ± 0.014
x2 = 0.001621, x1 = 0.0006634	1.115 ± 0.019	1.012 ± 0.017	0.906 ± 0.015	0.835 ± 0.014	0.761 ± 0.013
x2 = 0.001717, x1 = 0.0006634	1.12 ± 0.019	1.015 ± 0.017	0.91 ± 0.015	0.839 ± 0.014	0.764 ± 0.013
x2 = 0.001746, x1 = 0.000728	1.135 ± 0.019	1.029 ± 0.017	0.911 ± 0.015	0.84 ± 0.014	0.786 ± 0.014
x2 = 0.001804, x1 = 0.0009237	1.169 ± 0.024	1.03 ± 0.016	0.934 ± 0.018	0.857 ± 0.015	0.782 ± 0.013
x2 = 0.002295, x1 = 0.0009233	1.198 ± 0.024	1.047 ± 0.017	0.951 ± 0.019	0.876 ± 0.016	0.803 ± 0.013
x2 = 0.002321, x1 = 0.0007276	1.168 ± 0.02	1.048 ± 0.017	0.931 ± 0.016	0.861 ± 0.015	0.809 ± 0.014
x2 = 0.002323, x1 = 0.000663	1.155 ± 0.02	1.034 ± 0.017	0.93 ± 0.016	0.86 ± 0.015	0.787 ± 0.013
x2 = 0.002686, x1 = 0.0007273	1.189 ± 0.022	1.059 ± 0.017	0.943 ± 0.017	0.874 ± 0.016	0.824 ± 0.013
x2 = 0.002704, x1 = 0.0006627	1.176 ± 0.023	1.046 ± 0.018	0.942 ± 0.017	0.873 ± 0.015	0.801 ± 0.014
x2 = 0.002709, x1 = 0.0009229	1.223 ± 0.025	1.06 ± 0.022	0.965 ± 0.02	0.891 ± 0.016	0.82 ± 0.013

CCCCCCO + CCCC[n+]1ccn(C)c1.O=[N+]([O-])[O-]
100 kPa, x2 = 0
Conditions	viscosity [mPa·s]
293.15 K	5.37 ± 0.43
303.15 K	3.94 ± 0.32
313.15 K	2.95 ± 0.24
323.15 K	2.26 ± 0.18

CN(C)C=O + CCCC[n+]1ccn(C)c1.F[P-](F)(F)(F)(F)F
Conditions	viscosity [mPa·s]
303.15 K, 101 kPa, x1 = 1	0.82 ± 0.02

CN(C)C=O + CCCCCCCC[n+]1ccn(C)c1.F[P-](F)(F)(F)(F)F
101 kPa, x2 = 0
Conditions	viscosity [mPa·s]
293.15 K	0.881 ± 0.03
303.15 K	0.771 ± 0.029
313.15 K	0.668 ± 0.028
323.15 K	0.605 ± 0.028
333.15 K	0.553 ± 0.025
353.15 K	0.479 ± 0.02
363.15 K	0.447 ± 0.018

CC(=O)c1ccccc1 + CCCC[n+]1ccn(C)c1.F[P-](F)(F)(F)(F)F
100 kPa
Conditions	viscosity [mPa·s]
293.15 K, x1 = 0.5999	49.3 ± 9.9
303.15 K, x1 = 0.2999	45 ± 9
313.15 K, x1 = 0.4973	21.6 ± 4.3
313.15 K, x1 = 0.5999	16.5 ± 3.3
323.15 K, x1 = 0.0913	30.2 ± 6
323.15 K, x1 = 0.3908	20.1 ± 4
323.15 K, x1 = 0.697	8 ± 1.6
323.15 K, x1 = 0.7999	6 ± 1.2
323.15 K, x1 = 0.95	1.89 ± 0.38
333.15 K, x1 = 0.0913	20.3 ± 4
333.15 K, x1 = 0.2999	17.7 ± 3.6
333.15 K, x1 = 0.9002	3.48 ± 0.7
333.15 K, x1 = 1	1.09 ± 0.22
